This is an account of results in BindingDB's records for doi:10.1021/bi990174x (University of Queensland, 1999).

This test concerns the target T1, Dimer of Gag-Pol polyprotein [501-599,Q508K,L534I,L564I,C568A,C596A] (Human immunodeficiency virus 1, UniProt P03367, C568A/C596A/L534I/L564I/Q508K).
T1 construct: 501-599
In words: Protease Inhibition Assay. The settings on record: pH 6.5; 37 °C.

`CCC(=O)N[C@H](C(=O)N[C@@H](Cc1ccc(O)cc1)[C@H](O)CN[C@H]1Cc2ccc(cc2)OCCCNC(=O)[C@H](C(C)CC)NC1=O)C(C)C` (stereo partly drawn) [(2S)-N-[(2S,3R)-4-{[(8S,11S)-8-[(2S)-butan-2-yl]-7,10-dioxo-2-oxa-6,9-diazabicyclo[11.2.2]heptadeca-1(15),13,16-trien-11-yl]amino}-3-hydroxy-1-(4-hydroxyphenyl)butan-2-yl]-3-methyl-2-propanamidobutanamide]: the inhibition constant Ki (usually the equilibrium dissociation constant of an inhibitor or competing ligand from its target) came to 3 nM.
